Results from article PMC5152890 (PLoS ONE, 2016).
Where two headings read alike, the source gives them in different places.

Key:
[1] = biological target: T1, hVEGFR1-ECD (Homo sapiens, UniProt P17948); format: binding; conditions: for % displacement at 30 μM: 1% DMSO; for IC50: read-out: IC50 [95% CI]; for effect on the competition assay (in words): divalent cations, VEGF-A/hVEGFR1 interaction
T1 construct: purchased R&D Systems, Abingdon, UK

[2] = biological target: T2, hVEGFR1d2 (Homo sapiens, UniProt P17948); test: analytical size exclusion chromatography of hVEGFR1d2 dimerization; conditions: 1 mM CuSO4, 160 μM hVEGFR1d2, gel filtration
T2 construct: The human hVEGFR1d2 protein (residues 132–226) was expressed and purified; made in house; host or cells: E. coli Rosetta-gami(DE3)pLysS is stated only for the 15N-labelled batch
Protocol: Because the competition assay results indicated a higher effect of Cu^2+ ions compared to Zn^2+ or Co^2, the Cu^2+-induced dimerization of hVEGFR1d2 in solution was verified using analytical gel-filtration chromatography. In the presence of 1 mM EDTA a single hVEGFR1d2 peak was observed, which represents the monomer (apparent MW = 14.9 kDa). In the presence of 1 mM CuSO4, two peaks were eluted corresponding respectively to the hVEGFR1d2 dimer (78% of absorption, apparent MW = 27.9 kDa) and monomer (apparent MW = 15.8 kDa). SDS-PAGE analysis confirmed that both peaks consist of hVEGFR1d2 (Fig 7).
The Cu^2+-induced dimerization of hVEGFR1d2 was confirmed using a precalibrated analytical gel-filtration column (Superdex™75 HR 10/300 Amersham GE Healthcare, Little Chalfont, UK). Prior to loading, samples were prepared by incubating 160 μM hVEGFR1d2 in a buffer containing 25 mM Tris-HCl, pH 8.1, 250 mM NaCl, and either 1 mM EDTA or 1mM CuSO4 for 30 min at 18°C. Subsequently, 50 μL of this mixture was loaded at 0.5 mL/min on the column that was equilibrated with the identical respective buffers. Elution peaks were integrated, and the corresponding fractions were analyzed on SDS-PAGE.

[3] = biotinylated VEGF-A165 displaced by 30 μM of metal on whole ECD (d1-d7) of VEGFR1
[4] = concentration displacing 50% of biotinylated VEGF-A165 binding on VEGFR1 (ECD)

T1 sequence (P17948 27-687 isoform P17948-2): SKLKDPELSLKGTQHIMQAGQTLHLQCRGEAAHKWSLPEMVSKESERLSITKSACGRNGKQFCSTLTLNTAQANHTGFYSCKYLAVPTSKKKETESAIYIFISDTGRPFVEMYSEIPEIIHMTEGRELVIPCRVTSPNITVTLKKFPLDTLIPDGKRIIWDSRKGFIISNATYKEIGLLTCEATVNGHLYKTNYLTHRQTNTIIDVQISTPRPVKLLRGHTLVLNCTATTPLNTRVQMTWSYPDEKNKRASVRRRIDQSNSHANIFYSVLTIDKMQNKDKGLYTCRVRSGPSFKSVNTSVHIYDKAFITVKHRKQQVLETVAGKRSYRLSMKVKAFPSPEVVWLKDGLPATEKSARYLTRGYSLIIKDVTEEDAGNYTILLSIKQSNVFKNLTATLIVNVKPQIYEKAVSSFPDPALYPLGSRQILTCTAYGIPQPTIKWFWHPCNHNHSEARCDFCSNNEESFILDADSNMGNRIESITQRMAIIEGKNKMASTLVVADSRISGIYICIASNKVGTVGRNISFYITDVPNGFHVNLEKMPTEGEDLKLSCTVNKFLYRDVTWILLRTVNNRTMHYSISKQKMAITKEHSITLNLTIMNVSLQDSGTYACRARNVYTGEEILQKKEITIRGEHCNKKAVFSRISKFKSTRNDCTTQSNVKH
T2 sequence (P17948 132-226): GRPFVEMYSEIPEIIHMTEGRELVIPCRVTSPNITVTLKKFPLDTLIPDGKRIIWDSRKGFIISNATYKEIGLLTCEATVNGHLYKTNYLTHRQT

| Compound | % displacement at 30 μM [1, 3] | IC50 [1, 4] | other results |
| --- | --- | --- | --- |
| O=S(=O)([O-])[O-].[Cu+2] [CuSO4] | 83 ± 8% | 970 nM | hVEGFR1d2 dimer peak, % of absorption [2]: 78% |
| [Fe+2] [Fe^2+] | – | – | effect on the competition assay (in words) [1]: no effect |
| O=S(=O)([O-])[O-].[Fe+2] [FeSO4] | 13 ± 5% | – | – |
| [Cd+2] [Cd^2+] | – | – | effect on the competition assay (in words) [1]: little |
| [Cu+2] [Cu^2+] | – | – | disruption of the VEGF-A/hVEGFR1-ECD interaction in the presence of a metal chelator ([1]; with EDTA, 1 eq.): unable to disrupt the VEGF-A/hVEGFR1-ECD interaction |
| [Mn+2] [Mn^2+] | – | – | effect on the competition assay (in words) [1]: no effect |
| [Ni+2] [Ni^2+] | – | – | IC50 [95% CI] [1, 4]: within the micromolar range |
| [Cl][Cu][Cl] [CuCl2] | 87 ± 2% | 1260 nM | – |
| [Cl][Pd][Cl] [PdCl2] | 93 ± 1% | 250 nM | – |
| [Cl][Cd][Cl] [CdCl2] | 38 ± 4% | 48000 nM | – |
| CC(=O)[O-].CC(=O)[O-].[Cu+2] [Cu(OAc)2] | 69 ± 2% | 1320 nM | – |
| O=S(=O)([O-])[O-].[Zn+2] [ZnSO4] | 61 ± 2% | 5940 nM | – |
| CC(=O)[O-].CC(=O)[O-].[Pd+2] [Pd(OAc)2] | 97 ± 3% | 360 nM | – |
| [Co+2] [Co^2+] | – | – | effect on the competition assay (in words) [1]: little |
| O=S(=O)([O-])[O-].[Ni+2] [NiSO4] | 75 ± 1% | 3540 nM | – |
| O=S(=O)([O-])[O-].[Na+].[Na+] [Na2SO4] | 0% | – | – |
| [Cl-].[Cl-].[Co+2] [CoCl2] | – | – | % displacement at 30 μM [1]: 40 ± 2%; IC50 [1]: 47100 nM |
| O=S(=O)([O-])[O-].[Co+2] [CoSO4] | 44 ± 1% | – | – |
| O=S(=O)([O-])[O-].[Mn+2] [MnSO4] | 0% | – | – |
| [Zn+2] [Zn^2+] | – | – | IC50 [95% CI] [1, 4]: within the micromolar range |
